Tests used:
Type in all cases: physicochemical
[1] = Light transmission at 580 nm (% T); conditions: 580 nm
Description: The translucency of a composition may be measured by placing a sample of standardised thickness in the light path of a spectrophotometer and measuring transmittance, as a percentage of light transmitted in the absence of the gel.
This test was carried out using a dual-beam spectrophotometer. The sample of composition was poured hot into a 4.5 ml cuvette made of poly(methyl-methacrylate) (PMMA) and allowed to cool to an ambient temperature of 20-25° C. Such a cuvette gives a 1 cm thickness of composition. […] A transmittence measured at any temperature in the range from 20-25° C. is usually adequately accurate, but measurement is made at 22° C. if more precision is required.

[2] = Visual assessment score (clarity of gel in 1 cm cuvette); conditions: for Clarity Visual (assessment score): scale −12 to 8; for Visual: gel in 60:40 w/w Silkflo 364:DC245, score scale −12 to 8
From the text: A gel contained within a 1 cm thick cuvette was placed directly on to a sheet of white paper on which 21 sets of figures where printed in black. The size and thickness of the figures varied systematically and were numbered from −12 (the largest, thickest set) through 0 to 8 (the smallest thinnest set) The score given to each gel was the highest numbered set which could be read clearly through the gel, the higher the number, the higher the clarity.

[3] = Stability testing of gels: crystal growth visible by eye on storage at 37° C.
Description: Gels were made up using 10% structurant in a 60:40 mixture of Hydrogenated Polyisobutene (Panalene L14E):DC245. The gels, in sealed glass bottles, were left to stand for 18 hrs at room temperature, after which they were transferred to an oven thermostatically controlled to 37° C. Samples were checked periodically for signs of crystal growth visible by eye. REF1 is cellobiose octanonanoate.
Gels were made up and tested in accordance with the procedure in Example 6, as such or modified by employing a weight ratio of 9% of REF1 and 1% of an additional structurant as specified in Table 13 below.
The test procedure of Example 9 was repeated, but using ACB structurant REF2 alone as the structurant or to which a CHME structurant was added.

[4] = Gelling of water-immiscible cosmetic liquids in 96 well glass micro-titre plate; parameters: key: gel; g4: gel after overnight (18 hrs) storage at 4° C.; g22: gel after overnight (18 hrs) storage at 22° C.; sg: soft gel; sg22: soft gel after overnight (18 hrs) storage at 22° C.; solution; *: the test at 4° C. was not carried out; conditions: for gelling of ISA: 150° C. 2.5 hours, cooled to ambient
Description: In this Example, various samples of esterified cellobiose prepared as in Example 1 or 2 above, were used to gel water-immiscible cosmetic liquids, in accordance with the procedure given below, in which a large number of gels can be prepared simultaneously.
The samples were tested in a 96 well (8×12 rows) glass micro-titre plate. […] About 0.01 or 0.02 g of each esterified cellobiose material was placed into 8 consecutive wells in a single row, so that each well contained approximately 5% or 10% of the cellobiose ester. The balance in each well comprised the cosmetic liquid by addition of approximately 0.2 g of the respective liquid to each cell. A glass lid was placed on top of the plate. The plate was carefully placed in a thermostatically controlled fan-assisted oven set at 150° C. for 2.5 hours. The plate was removed from the oven and allowed to cool naturally to ambient laboratory temperature. The contents of the wells were assessed at the end of the cooling period, by visual inspection and by poking the contents of each well with a micro-spatula. The plates were stored at […] for 18 hours and the contents inspected, and further stored for 18 hours at 4° C. and inspected for a third time. The results obtained in the tests are summarised in Table 5 below, in which the legend is as follows: […]

[5] = 9% REF4 plus 1% of the named material
[6] = 9% REF4 plus 1% of the named material in 60:40 hydrogenated polydecene:DC245
[7] = 5% cellobiose ester in Fluid AP
[8] = 5% cellobiose ester in Mineral oil
[9] = 5% cellobiose ester in Polydecene
[10] = 10% cellobiose ester in Fluid AP
[11] = 10% cellobiose ester in Mineral oil
[12] = 10% cellobiose ester in Polydecene
[13] = Ex 2.6:REF 4 at stated weight ratio, total 10% in 60:40 w/w Silkflo 364NF:DC245
[14] = 9% REF2 and 1% of the specified ester in 60:40 hydrogenated polydecene:DC245

| Compound | Visual [2] | gelling of DC556 ([4]; 5% cellobiose ester in DC556) | gelling of Fluid AP [4, 7] | gelling of ISA ([4]; 5% cellobiose ester in ISA) | gelling of Mineral oil [4, 8] | gelling of Polydecene [4, 9] | gelling of DC556 ([4]; 10% cellobiose ester in DC556) | gelling of Fluid AP [4, 10] | gelling of ISA ([4]; 10% cellobiose ester in ISA) | gelling of Mineral oil [4, 11] | gelling of Polydecene [4, 12] | other results |
| --- | --- | --- | --- | --- | --- | --- | --- | --- | --- | --- | --- | --- |
| CCCCCCCCCC(=O)OCC1OC(OC2C(COC(=O)CCCCCCCCC)OC(OC(=O)c3ccccc3)C(OC(=O)CCCCCCCCC)C2OC(=O)CCCCCCCCC)C(OC(=O)CCCCCCCCC)C(OC(=O)CCCCCCCCC)C1OC(=O)CCCCCCCCC (mixture of isomers) [Ex 2.6] |  |  |  |  |  |  |  |  |  |  |  | Clarity % T [1, 5]: 4.5%; Clarity Visual (appearance) [2, 6]: translucent; Clarity Visual (assessment score) [2, 5]: −8 |
| cellobiose heptanonanoate monocyclohexanoate [Ex 3.2] | 5 |  |  |  |  |  |  |  |  |  |  |  |
| cellobiose heptanonanoate monocyclohexanoate [Ex 1.13] | 6 |  |  |  |  |  |  |  |  |  |  |  |
| CCCCCCCCC(=O)OC[C@H]1O[C@@H](O[C@H]2[C@H](OC(=O)CCCCCCCC)[C@@H](OC(=O)CCCCCCCC)C(OC(=O)CCCCCCCC)O[C@@H]2COC(=O)CCCCCCCC)[C@H](OC(=O)CCCCCCCC)[C@@H](OC(=O)CCCCCCCC)[C@@H]1OC(=O)CCCCCCCC (some centres unmarked) [REF 1, cellobiose octanonanoate] |  |  |  |  |  |  |  |  |  |  |  | Observation ([3]; 10% structurant in 60:40 Hydrogenated Polyisobutene (Panalene L14E):DC245, after 18 hrs at RT): Small crystals visible in gel after; Observation ([3]; 10% structurant in 60:40 Hydrogenated Polyisobutene (Panalene L14E):DC245, after 18 hrs at RT, listed as REF1): Small crystals visible in gel after 18; Observation ([3]; 10% structurant in 60:40 Panalene L14E:DC245, after 6 hrs at 37° C.): More and bigger crystals after 6 hrs; Observation ([3]; 10% structurant in 60:40 Panalene L14E:DC245, after 6 hrs at 37° C., listed as REF1): More and bigger crystals after 6 hrs at; Observation ([3]; 10% structurant in 60:40 Panalene L14E:DC245, after 3 days at 37° C.): Crystals throughout gel after 3 days; Observation ([3]; 10% structurant in 60:40 Panalene L14E:DC245, after 3 days at 37° C., listed as REF1): 37° C.; Crystals throughout gel after 3 days |
| CCCCCCCCCC(=O)OCC1OC(OC2C(COC(=O)CCCCCCCCC)OC(OC(=O)c3ccccc3)C(OC(=O)CCCCCCCCC)C2OC(=O)CCCCCCCCC)C(OC(=O)CCCCCCCCC)C(OC(=O)CCCCCCCCC)C1OC(=O)CCCCCCCCC (mixture of isomers) [Ex 2.1] |  | gel | gel | gel | gel | gel | gel | gel | gel | gel | gel | Clarity % T [1, 5]: 9.53%; Clarity Visual (appearance) [2, 6]: translucent; Clarity Visual (assessment score) [2, 5]: −1 |
| cellobiose heptanonanoate monocyclohexanoate [Ex 3.1] | 3 |  |  |  |  |  |  |  |  |  |  |  |
| cellobiose heptanonanoate monocyclohexanoate [Ex 1.12] | 3 |  |  |  |  |  |  |  |  |  |  |  |
| CCCCCCCCCC(=O)OCC1OC(OC2C(COC(=O)CCCCCCCCC)OC(OC(=O)CCCCCCCCC)C(OC(=O)CCCCCCCCC)C2OC(=O)CCCCCCCCC)C(OC(=O)CCCCCCCCC)C(OC(=O)CCCCCCCCC)C1OC(=O)CCCCCCCCC (mixture of isomers) [REF 4, reference compound] |  |  |  |  |  |  |  |  |  |  |  | Clarity % T [1, 5]: 0.36%; Clarity % T [1, 13]: 0.36%; Clarity Visual (appearance) [2, 6]: opaque; Clarity Visual (assessment score) [2, 5]: < −12; Clarity Visual Score [2, 13]: <−12 |
| CCCCCCCCCC(=O)OCC1OC(O)C(OC(=O)CCCCCCCCC)C(OC(=O)CCCCCCCCC)C1OC1OC(COC(=O)CCCCCCCCC)C(OC(=O)CCCCCCCCC)C(OC(=O)CCCCCCCCC)C1OC(=O)CCCCCCCCC (mixture of isomers) [REF 6, reference compound] |  |  |  |  |  |  |  |  |  |  |  | Clarity % T [1, 5]: 0.8%; Clarity Visual (appearance) [2, 6]: opaque; Clarity Visual (assessment score) [2, 5]: < −12 |
| CCCCCCCCC(=O)OCC1OC(O)C(OC(=O)CCCCCCCC)C(OC(=O)CCCCCCCC)C1OC1OC(COC(=O)CCCCCCCC)C(OC(=O)CCCCCCCC)C(OC(=O)CCCCCCCC)C1OC(=O)CCCCCCCC (mixture of isomers) [REF 5, reference compound] |  |  |  |  |  |  |  |  |  |  |  | Clarity % T [1, 14]: 31%; Clarity Visual (assessment score) [2, 14]: translucent 4; Clarity Visual (appearance) ([2]; 60:40 hydrogenated polydecene:DC245 gelled with 9% REF2 and 1% of the specified cellobiose ester): transparent/ |
| cellobiose heptanonanoate monocyclohexanoate [Ex 1.14] | 3 | gel | gel | g22 | gel | gel | gel | gel | gel | gel | gel | gelling of IPM ([4]; 5% cellobiose ester in IPM): sol; gelling of IPM ([4]; 10% cellobiose ester in IPM): g4 |
| CCCCCCCCCCCCCC(=O)OC1OC(COC(=O)CCCCCCCC)C(OC2OC(COC(=O)CCCCCCCC)C(OC(=O)CCCCCCCC)C(OC(=O)CCCCCCCC)C2OC(=O)CCCCCCCC)C(OC(=O)CCCCCCCC)C1OC(=O)CCCCCCCC (mixture of isomers) [Ex 1.24] |  | gel | gel | g22 | g22 | gel | gel | gel | gel | g22 | gel |  |
| CCCCCCCCC(=O)OCC1OC(OC2C(COC(=O)CCCCCCCC)OC(OC(=O)C3CCCCC3)C(OC(=O)CCCCCCCC)C2OC(=O)CCCCCCCC)C(OC(=O)CCCCCCCC)C(OC(=O)CCCCCCCC)C1OC(=O)CCCCCCCC (mixture of isomers) [Ex 3.3, cellobiose heptanonanoate monocyclohexanoate] | >8 |  |  |  |  |  |  |  |  |  |  | % T ([1]; gel in 60:40 w/w Silkflo 364:DC245): 53% |
| CCCCCCCCC(=O)OCC1OC(OC2C(COC(=O)CCCCCCCC)OC(OC(=O)C3CCCC3)C(OC(=O)CCCCCCCC)C2OC(=O)CCCCCCCC)C(OC(=O)CCCCCCCC)C(OC(=O)CCCCCCCC)C1OC(=O)CCCCCCCC (mixture of isomers) [Ex 3.5] |  | g22 | sg22 | sg22 | sol* | gel | gel | gel | g22 | gel | gel |  |
| CCCCCCCCCCCCCCCC(=O)OC1OC(COC(=O)CCCCCCCC)C(OC2OC(COC(=O)CCCCCCCC)C(OC(=O)CCCCCCCC)C(OC(=O)CCCCCCCC)C2OC(=O)CCCCCCCC)C(OC(=O)CCCCCCCC)C1OC(=O)CCCCCCCC (mixture of isomers) [Ex 1.8] |  | gel | gel | g22 | g22 | gel | gel | gel | g22 | g22 | gel | Observations ([3]; 9% of REF1 and 1% of additional structurant, after 15 days at 37° C.): No crystals after 15 days at 37 °C |
